According to PubChem BioAssay AID330 (DTP/NCI, 2004):
Values joined by “and” are separate entries in the source; they are usually repeats but may differ in a detail not shown here. Identical values can stand only once. Toxic doses and inconclusive results are not listed.

System: P388 leukemia ip, CD2F1 mice, survival T/C
Assay: NCI In Vivo Anticancer Drug Screen. Data for tumor model P388 Leukemia (intraperitoneal) in CD2F1 (CDF1) mice
Details: endpoint: median survival time, higher = longer survival
Procedure, shortened: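 Mice carrying the transplanted tumor received test compound or vehicle. Survival was recorded in each group, and the value is the treated-group measurement divided by that of the vehicle-treated control group.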

[1] = dose: 50.0 mg/kg/injection, schedule: Q01DX005 (ip), vehicle: saline with Tween-80
[2] = dose: 100.0 mg/kg/injection, schedule: Q01DX005 (ip), vehicle: saline with Tween-80
[3] = dose: 12.5 mg/kg/injection, schedule: Q01DX005 (ip), vehicle: saline with Tween-80
[4] = dose: 240.0 mg/kg/injection, schedule: Q01DX005 (ip), vehicle: saline with Tween-80

Q: Which T/C (dose: 0.75 mg/kg/injection, schedule: Q01DX005 (ip), vehicle: water) does the source give for `C=C[C@H]1C2=CCOC(=O)C2=CO[C@@H]1OC1OC(CO)C(O)C(O)C1O` (stereo partly specified) here?
A: 95 % of control

Q: And the T/C (dose: 1.5 mg/kg/injection, schedule: Q01DX005 (ip), vehicle: water)?
A: 95 % of control

Q: And the T/C (dose: 3.0 mg/kg/injection, schedule: Q01DX005 (ip), vehicle: water)?
A: 95 % of control

Q: What about the T/C (dose: 6.0 mg/kg/injection, schedule: Q01DX005 (ip), vehicle: water) of the same molecule?
A: 99 % of control

Q: `O=C1/C(=C/c2cccc(F)c2)SC(=S)N1C1CC1` was tested. Which T/C (dose: 6.25 mg/kg/injection, schedule: Q01DX005 (ip), vehicle: Klucel (hydroxypropylcellulose) (HPC)) did it give?
A: 96 % of control

Q: And the T/C (dose: 12.5 mg/kg/injection, schedule: Q01DX005 (ip), vehicle: Klucel (hydroxypropylcellulose) (HPC))?
A: 96 % of control

Q: What about the T/C (dose: 25.0 mg/kg/injection, schedule: Q01DX005 (ip), vehicle: Klucel (hydroxypropylcellulose) (HPC)) of the same molecule?
A: 99 % of control

Q: What about the T/C (dose: 50.0 mg/kg/injection, schedule: Q01DX005 (ip), vehicle: Klucel (hydroxypropylcellulose) (HPC)) of the same molecule?
A: 94 % of control

Q: And the T/C (dose: 100.0 mg/kg/injection, schedule: Q01DX005 (ip), vehicle: Klucel (hydroxypropylcellulose) (HPC))?
A: 92 % of control

Q: What about the T/C (dose: 200.0 mg/kg/injection, schedule: Q01DX005 (ip), vehicle: Klucel (hydroxypropylcellulose) (HPC)) of the same molecule?
A: 87 % of control

Q: How did the T/C (dose: 5.0 mg/kg/injection, schedule: Q01DX005 (ip), vehicle: Klucel (hydroxypropylcellulose) (HPC)) turn out when `CCCCCCCCCCC/C=C/[N+](=O)[O-]` was run?
A: 101 % of control

Q: And the T/C (dose: 10.0 mg/kg/injection, schedule: Q01DX005 (ip), vehicle: Klucel (hydroxypropylcellulose) (HPC))?
A: 99 % of control

Q: And the T/C (dose: 20.0 mg/kg/injection, schedule: Q01DX005 (ip), vehicle: Klucel (hydroxypropylcellulose) (HPC))?
A: 104 % of control

Q: And the T/C (dose: 40.0 mg/kg/injection, schedule: Q01DX005 (ip), vehicle: Klucel (hydroxypropylcellulose) (HPC))?
A: 99 % of control

Q: For `Nc1nc2[nH]c(=S)[nH]c2c(=O)[nH]1`, which T/C [1] is on record?
A: 92 % of control

Q: And the T/C [2]?
A: 92 % of control

Q: And the T/C (dose: 200.0 mg/kg/injection, schedule: Q01DX005 (ip), vehicle: saline with Tween-80)?
A: 95 % of control

Q: Which T/C (dose: 25.0 mg/kg/injection, schedule: Q01DX009 (ip), vehicle: saline with Tween-80) does the source give for `COC1C=COC2(C)Oc3c(C)c(O)c4c(O)c(c(C5SCCS5)c(O)c4c3C2=O)NC(=O)/C(C)=C\C=CC(C)C(O)C(C)C(O)C(C)C(OC(C)=O)C1C` (stereo unspecified) here?
A: 100 % of control and 92 % of control

Q: And the T/C (dose: 50.0 mg/kg/injection, schedule: Q01DX009 (ip), vehicle: saline with Tween-80)?
A: 105 % of control and 106 % of control and 92 % of control

Q: And the T/C (dose: 100.0 mg/kg/injection, schedule: Q01DX009 (ip), vehicle: saline with Tween-80)?
A: 100 % of control and 108 % of control

Q: What about the T/C (dose: 200.0 mg/kg/injection, schedule: Q01DX009 (ip), vehicle: saline with Tween-80) of the same molecule?
A: 109 % of control and 111 % of control and 115 % of control

Q: `CC(=O)Oc1c(N)c(C)cc(C)c1F` was tested. Which T/C (dose: 1.56 mg/kg/injection, schedule: Q01DX009 (ip), vehicle: saline with Tween-80) did it give?
A: 101 % of control

Q: What about the T/C (dose: 3.12 mg/kg/injection, schedule: Q01DX009 (ip), vehicle: saline with Tween-80) of the same molecule?
A: 93 % of control

Q: And the T/C (dose: 6.25 mg/kg/injection, schedule: Q01DX009 (ip), vehicle: saline with Tween-80)?
A: 100 % of control

Q: What about the T/C (dose: 12.5 mg/kg/injection, schedule: Q01DX009 (ip), vehicle: saline with Tween-80) of the same molecule?
A: 96 % of control

Q: With `CN(C)c1ccc(/C=N/Nc2nnc3c4ccccc4n(C)c3n2)cc1` as the molecule, how does the T/C [3] read?
A: 91 % of control

Q: And the T/C (dose: 25.0 mg/kg/injection, schedule: Q01DX005 (ip), vehicle: saline with Tween-80)?
A: 97 % of control

Q: For `Cc1ncc([N+](=O)[O-])n1CCN=[N+]=[N-]`, which T/C (dose: 50.0 mg/kg/injection, schedule: Q04DX003 (ip), vehicle: saline) is on record?
A: 99 % of control and 100 % of control

Q: And the T/C (dose: 100.0 mg/kg/injection, schedule: Q04DX003 (ip), vehicle: saline)?
A: 101 % of control and 107 % of control

Q: What about the T/C (dose: 200.0 mg/kg/injection, schedule: Q04DX003 (ip), vehicle: saline) of the same molecule?
A: 100 % of control and 112 % of control

Q: And the T/C (dose: 400.0 mg/kg/injection, schedule: Q04DX003 (ip), vehicle: saline)?
A: 100 % of control and 107 % of control

Q: What does the source list for `Cc1cc(/C=C2/OC(=O)c3ccccc32)cc(C(C)(C)C)c1O`?
A: T/C (dose: 100.0 mg/kg/injection, schedule: Q04DX002 (ip), vehicle: saline): 101 % of control; T/C (dose: 200.0 mg/kg/injection, schedule: Q04DX002 (ip), vehicle: saline): 99 % of control; T/C (dose: 400.0 mg/kg/injection, schedule: Q04DX002 (ip), vehicle: saline): 101 % of control

Q: With `O=C(Nc1ccccc1)c1c(O)[nH]c(=S)[nH]c1=O` as the molecule, how does the T/C (dose: 3.13 mg/kg/injection, schedule: Q01DX005 (ip), vehicle: saline with Tween-80) read?
A: 110 % of control

Q: And the T/C (dose: 6.25 mg/kg/injection, schedule: Q01DX005 (ip), vehicle: saline with Tween-80)?
A: 116 % of control

Q: What about the T/C [3] of the same molecule?
A: 120 % of control

Q: What about the T/C [1] of the same molecule?
A: 162 % of control and 201 % of control

Q: What about the T/C (dose: 75.0 mg/kg/injection, schedule: Q01DX009 (ip), vehicle: saline with Tween-80) of the same molecule?
A: 210 % of control and 237 % of control and 240 % of control

Q: And the T/C (dose: 175.0 mg/kg/injection, schedule: Q01DX009 (ip), vehicle: saline with Tween-80)?
A: 283 % of control

Q: For `O=C(CC(=O)N1N=C(N(c2ccccc2)c2ccccc2)CC1c1ccccc1)Nc1ccccc1Cl` (stereo unspecified), which T/C [1] is on record?
A: 99 % of control

Q: And the T/C [2]?
A: 99 % of control

Q: And the T/C [4]?
A: 90 % of control

Q: How did the T/C (dose: 60.0 mg/kg/injection, schedule: Q01DX005 (ip), vehicle: saline with Tween-80) turn out when `NC1C=NNC1=O` (stereo unspecified) was run?
A: 110 % of control

Q: What about the T/C (dose: 120.0 mg/kg/injection, schedule: Q01DX005 (ip), vehicle: saline with Tween-80) of the same molecule?
A: 116 % of control

Q: What about the T/C [4] of the same molecule?
A: 116 % of control
